Tests used:
[1] = target: Peptidyl-prolyl cis-trans isomerase B (Human, UniProt P23284); assay: PPIase Assay; conditions: pH 7.8; 5 °C
[2] = target: Peptidyl-prolyl cis-trans isomerase A (Homo sapiens, UniProt P62937); assay: PPIase Assay; conditions: pH 7.8; 5 °C
[3] = target: Peptidyl-prolyl cis-trans isomerase C (Mus musculus) (UniProt P30412); assay: PPIase activity assay were performed at 283 K in quartz cuvettes with a path length of 1 cm under vigorous stirring with a Hewlett-Packard 8453A UV-vis spectrophotometer in 35 mM HEPES buffer (pH 7.8).
Peptidyl-prolyl cis-trans isomerase C (Mus musculus), sequence (P30412 whole entry, looked up): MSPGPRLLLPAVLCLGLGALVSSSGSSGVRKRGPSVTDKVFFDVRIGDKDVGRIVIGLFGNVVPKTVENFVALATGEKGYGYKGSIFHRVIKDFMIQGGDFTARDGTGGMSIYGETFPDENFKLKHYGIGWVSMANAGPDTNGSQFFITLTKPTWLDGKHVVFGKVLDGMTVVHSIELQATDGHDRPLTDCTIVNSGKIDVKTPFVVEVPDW

[4] = target: T1, Peptidyl-prolyl cis-trans isomerase-like 1 (Homo sapiens, UniProt Q9Y3C6); assay: PPIase Assay; conditions: pH 7.8; 5 °C
T1 sequence (Q9Y3C6 whole entry): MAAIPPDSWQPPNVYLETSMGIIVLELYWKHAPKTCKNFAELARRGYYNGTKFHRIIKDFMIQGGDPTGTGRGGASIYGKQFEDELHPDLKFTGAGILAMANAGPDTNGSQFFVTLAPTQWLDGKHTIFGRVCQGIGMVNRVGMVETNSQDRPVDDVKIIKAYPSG

[5] = target: Peptidyl-prolyl cis-trans isomerase H (Homo sapiens, UniProt O43447); assay: PPIase Assay; conditions: pH 7.8; 5 °C
Peptidyl-prolyl cis-trans isomerase H, sequence (O43447 whole entry): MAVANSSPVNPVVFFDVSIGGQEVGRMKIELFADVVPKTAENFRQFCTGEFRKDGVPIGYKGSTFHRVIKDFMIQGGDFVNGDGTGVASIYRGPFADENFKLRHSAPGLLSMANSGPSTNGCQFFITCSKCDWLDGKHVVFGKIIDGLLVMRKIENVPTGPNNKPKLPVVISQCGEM

Peptidyl-prolyl cis-trans isomerase A, sequence (P62937 whole entry): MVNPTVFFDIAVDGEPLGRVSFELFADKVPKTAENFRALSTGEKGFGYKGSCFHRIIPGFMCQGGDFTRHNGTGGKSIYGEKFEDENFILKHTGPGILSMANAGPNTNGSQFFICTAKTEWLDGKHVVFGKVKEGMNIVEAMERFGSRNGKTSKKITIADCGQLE
Peptidyl-prolyl cis-trans isomerase B, sequence (P23284 whole entry): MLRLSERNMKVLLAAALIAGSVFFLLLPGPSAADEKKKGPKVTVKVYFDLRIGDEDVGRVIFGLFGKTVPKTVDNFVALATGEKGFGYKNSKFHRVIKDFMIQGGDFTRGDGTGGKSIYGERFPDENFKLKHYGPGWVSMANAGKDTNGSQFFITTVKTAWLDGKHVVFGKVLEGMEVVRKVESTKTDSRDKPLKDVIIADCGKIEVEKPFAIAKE

| Compound | Ki [1] | Ki [2] | Ki [3] | Ki [4] | Ki [5] |
| --- | --- | --- | --- | --- | --- |
| COc1ccc2c(c1)C(=O)C1(Cc3ccccc3C1)O2 [Benzofuranone, 9] | 63 µM | > 100 µM |  |  |  |
| COc1ccc(F)cc1C(=O)C1(C)CCc2ccccc21 (centres undefined) [Aryl 1-indanylketone, 6] | > 100 µM | > 100 µM |  |  |  |
| O=C1Oc2ccccc2C12Cc1ccccc1C2 [Benzofuranone, 8] | > 100 µM | > 100 µM |  |  |  |
| COc1ccc(-c2ccc(OC(F)(F)F)cc2)cc1C(=O)C1CCc2ccccc21 (centres undefined) [Aryl 1-indanylketone, 4] | 2.1 µM | 1.2 µM |  |  |  |
| COc1ccc2c(c1)C1(CC(C)c3ccccc31)C(=O)O2 (centres undefined) [Benzofuranone, 7] | > 100 µM | 21 µM |  |  |  |
| O=C(c1cc(-c2cc(F)cc([N+](=O)[O-])c2O)cc([N+](=O)[O-])c1O)C1CCc2ccccc21 (centres undefined) [Aryl 1-indanylketone, 1] | > 100 µM | 0.52 µM | > 100 µM | 29 µM | > 100 µM |
| COc1ccc(F)cc1-c1cc(N)c(O)c(C(=O)C2CCc3ccccc32)c1 (centres undefined) [Aryl 1-indanylketone, 3] | 8.6 µM | 1.7 µM |  |  |  |
| COc1ccc(C(F)(F)F)cc1C(=O)C1CCc2ccccc21 (centres undefined) [Aryl 1-indanylketone, 5] | > 100 µM | 10 µM |  |  |  |
| Nc1cc(F)cc(-c2ccc(O)c(C(=O)C3CCc4ccccc43)c2)c1O (centres undefined) [Aryl 1-indanylketone, 2] | 12 µM | 0.3 µM | > 100 µM | > 100 µM | > 100 µM |

— BindingDB's records for doi:10.1021/bi9007287 (Max Planck Research, 2009)
